Test results from ChEMBL document CHEMBL5038623, “Synthesis and bioactivities of new N-terminal dipeptide mimetics with aromatic amide moiety: Broad-spectrum antibacterial activity and high antineoplastic activity” (Eur J Med Chem, 2022).
≈ marks a conversion by molar mass, not a printed value. Calls of active or inactive are those of the source. The rule behind the calls is not given here.

How the values were obtained:
[1] = Selectivity index, HC50 for hemolytic activity in rabbit RBC to MIC for antibacterial activity against methicillin-resistant Staphylococcus aureus ATCC 33591; format: toxicity; conditions: rabbit red blood cells (RBC), read-out: Selectivity Index
[2] = tested on: SGC-7901; test: Cytotoxicity against human SGC-7901 cells assessed as reduction in cell viability after 24 hrs by MTT assay; format: functional, cell-based; conditions: SGC-7901, 24 h
[3] = tested on: Escherichia coli; test: Antibacterial activity against Escherichia coli ATCC25922 assessed as reduction in microbial growth after 24 hrs by broth dilution method; format: functional; conditions: ATCC 25922
[4] = tested on: Staphylococcus aureus; test: Antibacterial activity against Staphylococcus aureus ATCC 6538 assessed as reduction in microbial growth after 24 hrs by broth dilution method; format: functional
[5] = tested on: Klebsiella pneumoniae; test: Antibacterial activity against Klebsiella pneumoniae ATCC 700603 assessed as reduction in microbial growth after 24 hrs by broth dilution method; format: functional
[6] = tested on: Escherichia coli; test: Antibacterial activity against Escherichia coli ATCC25922 assessed as zone of inhibition incubated for 12 hrs by disc diffusion method; format: functional, ATCC 25922
[7] = tested on: Staphylococcus aureus; test: Antibacterial activity against Staphylococcus aureus ATCC 6538 assessed as zone of inhibition incubated for 12 hrs by disc diffusion method; format: functional
[8] = Hemolytic activity in rabbit RBC measured after 1 hrs by microplate reader assay; format: toxicity, cell-based, Oryctolagus cuniculus, Erythrocyte; conditions: rabbit red blood cells (RBC)
[9] = tested on: Escherichia coli; test: Bactericidal activity against Escherichia coli at 2MIC measured after 1 hrs by time-kill dilution assay relative to control; format: functional
[10] = tested on: Escherichia coli; test: Bactericidal activity against Escherichia coli at 4MIC measured after 1 hrs by time-kill dilution assay relative to control; format: functional
[11] = tested on: Escherichia coli; test: Bactericidal activity against Escherichia coli measured after 7 hrs by time-kill dilution assay relative to control; format: functional, organism-based
[12] = tested on: Staphylococcus aureus; test: Antibacterial activity against Staphylococcus aureus incubated with 50% plasma (unknown origin) measured after 4 hrs; format: functional, organism-based
[13] = tested on: Staphylococcus aureus; test: Antibacterial activity against Staphylococcus aureus incubated with 50% plasma (unknown origin) measured after 8 hrs; format: functional
[14] = tested on: Staphylococcus aureus; test: Antibacterial activity against Staphylococcus aureus assessed as fold change of bacterial growth inhibition incubated with 50% plasma (unknown origin); format: functional
[15] = tested on: Staphylococcus aureus; test: Antibacterial activity against Staphylococcus aureus assessed as fold change of bacterial growth inhibition incubated with 50% blood (unknown origin); format: functional
[16] = tested on: Staphylococcus aureus; test: Antibacterial activity against Staphylococcus aureus assessed as bacterial growth inhibition incubated with 50% serum (unknown origin); format: functional, organism-based
[17] = tested on: Staphylococcus aureus; test: Antibacterial activity against Staphylococcus aureus at sub-MIC measured treated over 16 serial passages after 24 hrs by resistance development assay; format: functional, organism-based
[18] = tested on: Escherichia coli; test: Antibacterial activity against Escherichia coli at sub-MIC treated over 16 serial passages measured after 24 hrs by resistance development assay; format: functional, organism-based
[19] = tested on: Escherichia coli; test: Antibiofilm activity against Escherichia coli at 20 ug/ml after 72 hrs by crystal violet staining based assay; format: functional; conditions: dose 20 µg/ml
[20] = tested on: Escherichia coli; test: Antibiofilm activity against Escherichia coli at 40 ug/ml after 72 hrs by crystal violet staining based assay; format: functional; conditions: dose 40 µg/ml
[21] = tested on: Escherichia coli; test: Antibiofilm activity against Escherichia coli at 80 ug/ml after 72 hrs by crystal violet staining based assay; format: functional; conditions: dose 80 µg/ml
[22] = tested on: Escherichia coli; test: Antibiofilm activity against Escherichia coli at 160 ug/ml after 72 hrs by crystal violet staining based assay; format: functional; conditions: dose 160 µg/ml
[23] = tested on: Escherichia coli; test: Antibiofilm activity against Escherichia coli at 320 ug/ml after 72 hrs by crystal violet staining based assay; format: functional; conditions: dose 320 µg/ml
[24] = tested on: Staphylococcus aureus; test: Antibiofilm activity against Staphylococcus aureus at 80 ug/ml after 24 hrs by crystal violet staining based assay; format: functional; conditions: dose 80 µg/ml
[25] = tested on: Staphylococcus aureus; test: Antibiofilm activity against Staphylococcus aureus at 160 ug/ml after 24 hrs by crystal violet staining based assay; format: functional; conditions: dose 160 µg/ml
[26] = tested on: Staphylococcus aureus; test: Antibiofilm activity against Staphylococcus aureus at 320 ug/ml after 24 hrs by crystal violet staining based assay; format: functional; conditions: dose 320 µg/ml
[27] = tested on: Staphylococcus aureus; test: Bactericidal activity against Staphylococcus aureus assessed as changes in cell morphology incubated for 3 hrs by SEM analysis; format: functional, organism-based
[28] = tested on: Escherichia coli; test: Bactericidal activity against Escherichia coli assessed as changes in cell morphology incubated for 3 hrs by SEM analysis; format: functional, organism-based
[29] = tested on: SGC-7901; test: Induction of apoptosis in human SGC-7901 cells assessed as apoptosis rate at 5 ug/ml incubated for 24 hrs by annexin V-FITC/propidium iodide staining based flow cytometric analysis (reference value: 7.44%); format: functional; conditions: dose 5 µg/ml
[30] = tested on: SGC-7901; test: Induction of apoptosis in human SGC-7901 cells assessed as apoptosis rate at 25 ug/ml incubated for 24 hrs by annexin V-FITC/propidium iodide staining based flow cytometric analysis (reference value: 7.44%); format: functional; conditions: dose 25 µg/ml
[31] = tested on: SGC-7901; test: Induction of apoptosis in human SGC-7901 cells assessed as apoptosis rate level at 50 ug/ml incubated for 24 hrs by annexin V-FITC/propidium iodide staining based flow cytometric analysis (reference value: 7.44%); format: functional; conditions: dose 50 µg/ml
[32] = tested on: L929; test: Cytotoxicity against mouse L929 cells assessed as reduction in cell viability at 31.5 to 125 ug/ml incubated for 24 hrs by MTT assay; format: toxicity, cell-based; conditions: l929, 24 h, at 31.5 to 125 µg/mL, dose 31.5-125 µg/ml
[33] = tested on: L929; test: Cytotoxicity against mouse L929 cells assessed as reduction in cell viability at 1000 ug/ml incubated for 24 hrs by MTT assay; format: toxicity, cell-based; conditions: l929, 24 h, at 1000 µg/mL
[34] = tested on: L929; test: Cytotoxicity against mouse L929 cells assessed as reduction in cell viability at 15.6 ug/ml incubated for 24 hrs by MTT assay; format: toxicity, cell-based; conditions: l929, 24 h, dose 15.6 µg/ml
[35] = tested on: Escherichia coli; test: Antibacterial activity against Escherichia coli assessed as fold change of bacterial growth inhibition incubated with 50% plasma (unknown origin); format: functional
[36] = tested on: Escherichia coli; test: Antibacterial activity against Escherichia coli assessed as fold change of bacterial growth inhibition incubated with 50% blood (unknown origin); format: functional
[37] = tested on: Escherichia coli; test: Antibacterial activity against Escherichia coli assessed as bacterial growth inhibition incubated with 50% serum (unknown origin); format: functional, organism-based
[38] = tested on: Staphylococcus aureus; test: Antibacterial activity against methicillin-resistant Staphylococcus aureus ATCC 33591 assessed as MIC incubated for 12 hrs

C#Cc1ccc(NC(=O)[C@@H](N)C(C)C)cc1
selectivity ratio [1]: 356
IC50 [2]: 70.8 µg/mL (≈ 327 µM)
MIC [3]: 5 µg/mL
MIC [4]: 2.5 µg/mL
MIC [5]: 5 µg/mL
diameter of the inhibition zone (DIZ) [6]: 20 mm
diameter of the inhibition zone (DIZ) [7]: 21.8 mm
HC50 at 1 h [8]: 891 µg/mL
Activity [9]: 62.2%
Activity [10]: 0.4%
Activity [11]: Active
Activity [12]: Active
fold change (FC) [13]: 2
fold change (FC) [14]: 2
fold change (FC) [15]: 4
Activity [16]: inactive
Activity [17]: inactive
Activity [18]: inactive
Activity [19]: 47.5%
Activity [20]: 66.2%
Activity [21]: 77.3%
Activity [22]: 81.5%
Activity [23]: 93.5%
Activity [24]: 77.5%
Activity [25]: 85.4%
Activity [26]: 91%
Activity [27]: Active
Activity [28]: Active
Activity [29]: 9.71%
Activity [30]: 11.46%
Activity [31]: 50.36%
Activity [32]: 85%
Activity [33]: 70%
Activity [34]: Non-Toxic
fold change (FC) [35]: 2
fold change (FC) [36]: 4
Activity [37]: inactive
MIC [38]: 5 µg/mL (≈ 23.1 µM)
